Results reported in patent US8133910B2, “Thiophene derivatives as S1P1/EDGE1 receptor agonists” (Actelion Pharmaceuticals Ltd., priority 2006, dated 2012).

biological target: recombinant human S1P1 receptor (Homo sapiens, UniProt P21453); assay: GTPγS assay to determine EC50 values; format: biochemical; conditions: 35S-GTPγS binding, membrane preparations of CHO cells expressing recombinant human S1P1 receptor, pH 7.4
Method: GTPγS binding assays are performed in 96 well microtiter plates (Nunc, 442587) in a final volume of 200 μl, using membrane preparations of CHO cells expressing recombinant human S1P1 receptor. Assay conditions are 20 mM Hepes (Fluka, 54461), 100 mM NaCl (Fluka, 71378), 5 mM MgCl2 (Fluka, 63064), 0.1% BSA (Calbiochem, 126609), 1 μM GDP (Sigma, G-7127), 2.5% DMSO (Fluka, 41644), 50 pM ^35S-GTPγS (Amersham Biosciences, SJ1320). The pH is 7.4. Test compounds are dissolved and diluted in 100% DMSO and pre-incubated at room temperature for 30 min in 150 μl of the above assay buffer, in the absence of ^35S-GTPγS. After addition of 50 μl of ^35S-GTPγS, the assay is incubated for 1 h at rt. The assay is terminated by transfer of the reaction mixture to a Multiscreen plate (Millipore, MAHFC1H60) using a cell harvester from Packard Biosciences, and the plates are washed with ice-cold 10 mM Na2HPO4/NaH2PO4 (70%/30%), dried, sealed at the bottom and, after addition of 25 μl MicroScint20 (Packard Biosciences, order #6013621), sealed on the top. Membrane-bound ^35S-GTPγS is measured with a TopCount from Packard Biosciences.
EC50 is the concentration of agonist inducing 50% of the maximal specific ^35S-GTPγS binding. Specific binding is determined by subtracting non-specific binding from maximal binding. Maximal binding is the amount of cpm bound to the
Multiscreen plate in the presence of 10 μM of S1P. Non-specific binding is the amount of binding in the absence of an agonist in the assay.

Sequence of recombinant human S1P1 receptor (P21453 whole entry): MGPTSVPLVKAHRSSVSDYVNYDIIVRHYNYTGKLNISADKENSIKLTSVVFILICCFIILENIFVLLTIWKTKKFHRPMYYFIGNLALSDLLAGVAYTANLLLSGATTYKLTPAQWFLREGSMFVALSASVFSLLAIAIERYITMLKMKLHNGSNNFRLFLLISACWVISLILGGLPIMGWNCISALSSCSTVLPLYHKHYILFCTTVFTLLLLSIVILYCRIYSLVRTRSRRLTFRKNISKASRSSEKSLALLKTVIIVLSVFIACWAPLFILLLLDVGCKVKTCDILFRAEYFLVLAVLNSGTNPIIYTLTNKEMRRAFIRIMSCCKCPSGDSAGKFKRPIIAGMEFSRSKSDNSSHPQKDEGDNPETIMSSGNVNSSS

Row | SMILES | EC50 [nM]
1 | CCCc1ccc(-c2nc(-c3cc(C)c(OC[C@H](O)CNC(=O)CO)c(C)c3)no2)s1 [Example 17, (2R)—N-(3-{2,6-Dimethyl-4-[5-(5-propyl-thiophen-2-yl)-[1,2,4]oxadiazol-3-yl]-phenoxy}-2-hydroxy-propyl)-2-hydroxy-acetamide] | 0.6
2 | Cc1cc(-c2nnc(-c3ccc(CC(C)C)s3)o2)cc(C)c1OCC(O)CNC(=O)CO (stereo not drawn) [Example 22, 2-hydroxy-N-(2-hydroxy-3-{4-[5-(5-isobutyl-thiophen-2-yl)-[1,3,4]oxadiazol-2-yl]-2,6-dimethyl-phenoxy}-propyl)-acetamide] | 2.8
3 | CCCc1ccc(-c2nc(-c3cc(C)c(OC[C@@H](O)CNC(=O)CO)c(CC)c3)no2)s1 [Example 28, (2S)—N-(3-{2-Ethyl-6-methyl-4-[5-(5-propyl-thiophen-2-yl)-[1,2,4]oxadiazol-3-yl]-phenoxy}-2-hydroxy-propyl)-2-hydroxy-acetamide] | 2.4
4 | Cc1cc(-c2nnc(-c3ccc(CC(C)C)s3)o2)cc(C)c1OC[C@@H](O)CNC(=O)CO [Example 31, 2-hydroxy-N-((2S)-2-hydroxy-3-{4-[5-(5-isobutyl-thiophen-2-yl)-[1,3,4]oxadiazol-2-yl]-2,6-dimethyl-phenoxy}-propyl)-acetamide] | 3.3
5 | CCc1cc(-c2nnc(-c3cc(C)c(CC(C)C)s3)o2)cc(C)c1OC[C@@H](O)CNC(=O)CO [Example 42, N-((2S)-3-{2-Ethyl-4-[5-(5-isobutyl-4-methyl-thiophen-2-yl)-[1,3,4]oxadiazol-2-yl]-6-methyl-phenoxy}-2-hydroxy-propyl)-2-hydroxy-acetamide] | 0.6
6 | Cc1cc(-c2noc(-c3ccc(CC(C)C)s3)n2)cc(C)c1OCC(O)CNC(=O)CO (stereo not drawn) [Example 16] | 2.6

tested on: circulating lymphocytes; assay: Assessment of in vivo efficacy: circulating lymphocytes after oral administration; conditions: 6 h after oral administration of 10 mg/kg to normotensive male Wistar rats, as compared to vehicle group; mean±SEM
Method: The efficacy of the compounds of Formula (I) is assessed by measuring the circulating lymphocytes after oral administration of 3 to 30 mg/kg of a compound of Formula (I) to normotensive male Wistar rats. The animals are housed in climate-controlled conditions with a 12 h-light/dark cycle, and have free access to normal rat chow and drinking water. Blood is collected before and 3, 6 and 24 h after drug administration. Full blood is subjected to hematology using Advia Hematology system (Bayer Diagnostics, Zürich, Switzerland).
All data are presented as mean±SEM. Statistical analyses are performed by analysis of variance (ANOVA) using Statistica (StatSoft) and the Student-Newman-Keuls procedure for multiple comparisons. The null hypothesis is rejected when p<0.05.

Row | SMILES | Lymphocyte counts [%]
7 | CCCc1ccc(-c2nc(-c3cc(C)c(OC[C@H](O)CNC(=O)CO)c(C)c3)no2)s1 [Example 17, (2R)—N-(3-{2,6-Dimethyl-4-[5-(5-propyl-thiophen-2-yl)-[1,2,4]oxadiazol-3-yl]-phenoxy}-2-hydroxy-propyl)-2-hydroxy-acetamide] | −59. ± 4
8 | CCc1cc(-c2nnc(-c3cc(C)c(CC(C)C)s3)o2)cc(C)c1OC[C@@H](O)CO [Example 40, (2S)-3-{2-Ethyl-4-[5-(5-isobutyl-4-methyl-thiophen-2-yl)-[1,3,4]oxadiazol-2-yl]-6-methyl-phenoxy}-propane-1,2-diol] | −58 ± 3
9 | CCc1cc(-c2nnc(-c3ccc(CC(C)C)s3)o2)cc(C)c1OC[C@@H](O)CNC(=O)CO [Example 37, N-((2S)-3-{2-Ethyl-6-methyl-4-[5-(5-isobutyl-thiophen-2-yl)-[1,3,4]oxadiazol-2-yl]-phenoxy}-2-hydroxy-propyl)-2-hydroxy-acetamide] | −67 ± 3
